Columns and labels:
[1] = molecular target: NET (norepinephrine transporter) (Homo sapiens, UniProt P23975); assay: receptor binding assay
sigma-2 receptor (σ 2) = molecular target: T1, sigma-2 receptor (σ 2) (Rattus norvegicus, UniProt Q5U3Y7); assay: receptor binding assay
T1 sequence (Q5U3Y7 1-176): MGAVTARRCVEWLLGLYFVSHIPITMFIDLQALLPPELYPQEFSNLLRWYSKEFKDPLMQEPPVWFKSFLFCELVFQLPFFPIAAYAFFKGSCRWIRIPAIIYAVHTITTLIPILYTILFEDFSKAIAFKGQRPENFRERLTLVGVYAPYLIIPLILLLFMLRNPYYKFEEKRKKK

[2] = molecular target: DAT (dopamine transporter) (Homo sapiens, UniProt Q01959); assay: receptor binding assay
[3] = molecular target: SERT (serotonin transporter) (Homo sapiens, UniProt P31645); assay: receptor binding assay
male Swiss Webster mice [4] = assay: locomotor activity test; type: in vivo, mouse; conditions: 20 mg/kg, i.p.
male Swiss Webster mice [5] = assay: forced-swim test; type: in vivo, mouse; conditions: 20 mg/kg, i.p., relative to desipramine (20 mg/kg)

Chain of SERT (serotonin transporter) (P31645 whole entry, species assumed): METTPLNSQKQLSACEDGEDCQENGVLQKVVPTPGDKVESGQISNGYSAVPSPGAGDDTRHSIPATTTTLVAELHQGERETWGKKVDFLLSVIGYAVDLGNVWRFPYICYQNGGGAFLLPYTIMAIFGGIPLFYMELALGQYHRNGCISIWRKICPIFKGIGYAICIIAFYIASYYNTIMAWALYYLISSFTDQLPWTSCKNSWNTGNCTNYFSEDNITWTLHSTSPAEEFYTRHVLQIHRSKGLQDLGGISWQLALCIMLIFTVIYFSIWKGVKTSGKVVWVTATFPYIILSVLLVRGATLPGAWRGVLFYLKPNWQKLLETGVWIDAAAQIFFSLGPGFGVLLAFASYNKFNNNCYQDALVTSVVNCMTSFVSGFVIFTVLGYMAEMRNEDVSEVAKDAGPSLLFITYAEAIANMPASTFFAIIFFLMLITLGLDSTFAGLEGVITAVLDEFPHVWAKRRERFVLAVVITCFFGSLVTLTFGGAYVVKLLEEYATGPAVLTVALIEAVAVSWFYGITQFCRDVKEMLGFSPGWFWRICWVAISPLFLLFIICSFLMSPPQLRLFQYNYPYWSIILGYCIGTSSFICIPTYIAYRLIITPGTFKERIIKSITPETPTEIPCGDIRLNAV
Chain of NET (norepinephrine transporter) (P23975 whole entry): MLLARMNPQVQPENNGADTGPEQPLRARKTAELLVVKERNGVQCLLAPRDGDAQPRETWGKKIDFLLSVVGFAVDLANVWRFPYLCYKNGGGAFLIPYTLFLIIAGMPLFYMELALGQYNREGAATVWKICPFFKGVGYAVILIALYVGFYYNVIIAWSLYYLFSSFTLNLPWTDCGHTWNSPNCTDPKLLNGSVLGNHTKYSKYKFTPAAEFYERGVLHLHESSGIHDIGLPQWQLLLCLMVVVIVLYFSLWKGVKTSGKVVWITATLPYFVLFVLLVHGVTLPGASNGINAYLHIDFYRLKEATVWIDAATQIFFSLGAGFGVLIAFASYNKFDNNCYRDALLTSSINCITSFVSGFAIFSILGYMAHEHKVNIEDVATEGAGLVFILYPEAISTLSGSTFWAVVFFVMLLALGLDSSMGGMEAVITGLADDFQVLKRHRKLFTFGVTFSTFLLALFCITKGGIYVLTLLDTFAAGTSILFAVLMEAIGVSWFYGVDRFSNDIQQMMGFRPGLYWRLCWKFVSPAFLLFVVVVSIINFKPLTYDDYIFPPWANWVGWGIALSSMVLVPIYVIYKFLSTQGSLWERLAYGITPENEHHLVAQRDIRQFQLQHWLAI
Chain of DAT (dopamine transporter) (Q01959 whole entry, species assumed): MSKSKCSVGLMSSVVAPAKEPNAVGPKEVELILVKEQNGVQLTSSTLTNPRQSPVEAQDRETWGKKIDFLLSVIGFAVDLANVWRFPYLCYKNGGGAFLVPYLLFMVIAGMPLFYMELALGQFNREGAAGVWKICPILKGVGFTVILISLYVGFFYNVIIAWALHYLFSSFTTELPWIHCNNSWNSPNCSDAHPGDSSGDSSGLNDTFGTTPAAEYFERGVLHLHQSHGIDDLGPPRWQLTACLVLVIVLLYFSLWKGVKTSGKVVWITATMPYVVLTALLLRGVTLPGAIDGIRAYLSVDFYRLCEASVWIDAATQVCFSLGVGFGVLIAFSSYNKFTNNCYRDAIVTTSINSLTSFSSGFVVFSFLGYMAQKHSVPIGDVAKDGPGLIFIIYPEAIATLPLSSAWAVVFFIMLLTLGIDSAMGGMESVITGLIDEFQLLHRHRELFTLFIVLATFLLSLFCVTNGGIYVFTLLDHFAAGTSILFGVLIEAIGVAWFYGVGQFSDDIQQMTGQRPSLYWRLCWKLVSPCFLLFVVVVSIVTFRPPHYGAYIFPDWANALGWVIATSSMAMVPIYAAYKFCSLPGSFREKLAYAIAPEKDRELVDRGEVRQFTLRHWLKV

Cc1nccc2c1C(C)(C)Nc1cc(Br)ccc1-2 [Veranamine]
affinity for norepinephrine transporter [1]: no affinity
binding to the sigma-2 receptor (sigma-2 receptor (σ 2)): did not bind
affinity for dopamine transporter [2]: no affinity
affinity for serotonin transporter [3]: no affinity
locomotor activity (nonspecific stimulant action) (male Swiss Webster mice [4]): did not demonstrate nonspecific stimulant action
immobility time in mouse forced-swim test (male Swiss Webster mice [5]): decreasing the immobility time significantly

— paper PMC11187827 (Journal of natural products, 2020)
